Values joined by “and” are separate entries in the source; they are usually repeats but may differ in a detail not shown here. Identical values can stand only once.
System: BDF1 mice, Adenocarcinoma 755 s.c., tumor weight T/C
Assay: NCI In Vivo Anticancer Drug Screen. Data for tumor model Adenocarcinoma 755 (subcutaneous) in B6D2F1 (BDF1) mice
Settings: endpoint: mean tumor weight, higher = larger tumour
Method in brief: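 Transplantable tumor implanted; mice dosed with compound or vehicle; survival or tumor size recorded; ratio of treated to vehicle control reported.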

[1] = dose: 25.0 mg/kg/injection, schedule: Q01DX011 (ip), vehicle: methylcellulose (MC)

With CCC1CN1P(=O)(Oc1cccc2ccccc12)N1CC1CC (stereo not drawn) the T/C (dose: 88.0 mg/kg/injection, schedule: Q01DX011 (ip), vehicle: carboxymethylcellulose (CMC)) was 42 % of control, the T/C (dose: 88.0 mg/kg/injection, schedule: Q01DX011 (ip), vehicle: methylcellulose (MC)) was 80 % of control and the T/C (dose: 175.0 mg/kg/injection, schedule: Q01DX011 (ip), vehicle: methylcellulose (MC)) was 92 % of control. The T/C (dose: 350.0 mg/kg/injection, schedule: Q01DX011 (ip), vehicle: methylcellulose (MC)) was 59 % of control.
For OC(CBr)C(O)C(O)C(O)CBr (stereo not drawn), the T/C (dose: 25.0 mg/kg/injection, schedule: Q01DX011 (ip), vehicle: saline) was 48 % of control, the T/C (dose: 50.0 mg/kg/injection, schedule: Q01DX011 (ip), vehicle: saline) was 64 % of control and 71 % of control and the T/C (dose: 100.0 mg/kg/injection, schedule: Q01DX011 (ip), vehicle: saline) was 66 % of control and 72 % of control. For the same molecule, the T/C (dose: 200.0 mg/kg/injection, schedule: Q01DX011 (ip), vehicle: saline) was 38 % of control and 50 % of control and the T/C (dose: 400.0 mg/kg/injection, schedule: Q01DX011 (ip), vehicle: saline) was 29 % of control.
With CCCCn1cnc2c(SCc3ccccc3F)nc(N)nc21 the T/C (dose: 6.25 mg/kg/injection, schedule: Q01DX011 (ip), vehicle: methylcellulose (MC)) was 81 % of control, the T/C (dose: 12.5 mg/kg/injection, schedule: Q01DX011 (ip), vehicle: methylcellulose (MC)) was 41 % of control and the T/C [1] was 18 % of control. The T/C (dose: 50.0 mg/kg/injection, schedule: Q01DX011 (ip), vehicle: methylcellulose (MC)) was 3 % of control and the T/C (dose: 100.0 mg/kg/injection, schedule: Q01DX011 (ip), vehicle: methylcellulose (MC)) was 5 % of control.
O=S(=O)(F)c1nc(Cl)c2[nH]cnc2n1 was tested, and the T/C (dose: 6.2 mg/kg/injection, schedule: Q01DX011 (ip), vehicle: methylcellulose (MC)) was 117 % of control.
With Cn1c(=O)c2[nH]c(N/N=C/c3ccc(F)cc3)nc2n(C)c1=O the T/C (dose: 30.0 mg/kg/injection, schedule: Q01DX011 (ip), vehicle: carboxymethylcellulose (CMC)) was 93 % of control, the T/C (dose: 60.0 mg/kg/injection, schedule: Q01DX011 (ip), vehicle: carboxymethylcellulose (CMC)) was 91 % of control and the T/C (dose: 120.0 mg/kg/injection, schedule: Q01DX011 (ip), vehicle: carboxymethylcellulose (CMC)) was 114 % of control.
O=C(O)c1cccc2c3c(cc([N+](=O)[O-])c12)CCCC3 was tested, and the T/C (dose: 0.18 mg/kg/injection, schedule: Q01DX011 (ip), vehicle: carboxymethylcellulose (CMC)) was 101 % of control, the T/C (dose: 0.37 mg/kg/injection, schedule: Q01DX011 (ip), vehicle: carboxymethylcellulose (CMC)) was 97 % of control and the T/C (dose: 1.5 mg/kg/injection, schedule: Q01DX011 (ip), vehicle: carboxymethylcellulose (CMC)) was 85 % of control.
In the case of CC[C@H](c1ccc(O)cc1)[C@@H](CC)c1ccc(O)cc1, the T/C (dose: 55.0 mg/kg/injection, schedule: Q01DX011 (sc), vehicle: steriod suspending solution) is reported as 44 % of control.
CC(=O)OCC1CCCC(n2cnc3c(Cl)ncnc32)O1 (stereo not drawn) was tested, and the T/C (dose: 62.5 mg/kg/injection, schedule: Q01DX011 (ip), vehicle: methylcellulose (MC)) was 74 % of control, the T/C (dose: 125.0 mg/kg/injection, schedule: Q01DX011 (ip), vehicle: methylcellulose (MC)) was 52 % of control and the T/C (dose: 250.0 mg/kg/injection, schedule: Q01DX011 (ip), vehicle: methylcellulose (MC)) was 26 % of control.
With O=C(O)CCC(=O)NO the T/C (dose: 50.0 mg/kg/injection, schedule: Q01DX011 (ip), vehicle: carboxymethylcellulose (CMC)) was 96 % of control, the T/C (dose: 100.0 mg/kg/injection, schedule: Q01DX011 (ip), vehicle: carboxymethylcellulose (CMC)) was 98 % of control and the T/C (dose: 200.0 mg/kg/injection, schedule: Q01DX011 (ip), vehicle: carboxymethylcellulose (CMC)) was 84 % of control.
With Cn1cnc2nc[nH]c2c1=S the T/C [1] was 64 % of control and the T/C (dose: 75.0 mg/kg/injection, schedule: Q01DX011 (ip), vehicle: methylcellulose (MC)) was 75 % of control.
In the case of C[N+](C)(C)C(C(=O)c1ccccc1)c1ccccc1 (stereo not drawn), the T/C (dose: 10.0 mg/kg/injection, schedule: Q01DX011 (ip), vehicle: carboxymethylcellulose (CMC)) is reported as 124 % of control.
In the case of CS(=O)(=O)OCCC(=O)NCCCNC(=O)CCOS(C)(=O)=O, the T/C (dose: 28.0 mg/kg/injection, schedule: Q01DX011 (ip), vehicle: methylcellulose (MC)) is reported as 85 % of control and the T/C (dose: 52.0 mg/kg/injection, schedule: Q01DX011 (ip), vehicle: methylcellulose (MC)) is reported as 49 % of control.

Source: PubChem BioAssay AID180 (DTP/NCI, 2004)
